Some test systems named below: NCI-H522 lung; UACC-257 melanoma; SK-MEL-5 melanoma; SK-OV-3 ovarian; LOX IMVI melanoma; CAKI-1 renal; UO-31 renal; NCI-H226 lung.
What all share (test): NCI-60 cell line screen, 48 h

The structures appear in SMILES notation.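 Test compounds were applied to cells in 96-well plates for 48 hours at 5 doses. At the GI50, growth is halved. TGI: concentration producing complete growth inhibition.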

As for `CC(=O)c1ccc2c(c1)c1cc(C(C)=O)ccc1n2CCNC(C)C`, the GI50 is 257 nM with NCI-H522 lung; 296 nM in the experiment on UACC-257 melanoma; 291 nM in the experiment with SK-MEL-5 melanoma; 1250 nM with SK-OV-3 ovarian; 211 nM in the experiment on LOX IMVI melanoma; 304 nM in the experiment with CAKI-1 renal. The results for the GI50 in the experiment on UO-31 renal and in the experiment with NCI-H226 lung were 200 nM and 281 nM, respectively. The TGI with NCI-H522 lung came to 1130 nM; with UACC-257 melanoma, 1310 nM; in the experiment with SK-MEL-5 melanoma, 923 nM; in the experiment with SK-OV-3 ovarian, 8760 nM; with LOX IMVI melanoma, 526 nM; with CAKI-1 renal, 10500 nM. Besides, the TGI stood at 704 nM in the experiment with UO-31 renal and 2190 nM with NCI-H226 lung.

For the compound `CCN1C/C(=C\c2cc(OC)c(OC)cc2OC)C(=O)/C(=C/c2cc(OC)c(OC)cc2OC)C1`, the GI50 with NCI-H522 lung was 3050 nM; with UACC-257 melanoma it was 4320 nM; in the experiment with SK-MEL-5 melanoma, 1590 nM; with SK-OV-3 ovarian, 3690 nM; in the experiment with LOX IMVI melanoma, 2250 nM; in the experiment on CAKI-1 renal, 2980 nM. Moreover, the GI50 is 1800 nM with UO-31 renal and 2590 nM with NCI-H226 lung. Besides, the TGI in the experiment on NCI-H522 lung was 12000 nM; in the experiment on UACC-257 melanoma, 28000 nM; in the experiment with SK-MEL-5 melanoma it was 3530 nM; in the experiment with SK-OV-3 ovarian, > 100000 nM; in the experiment with LOX IMVI melanoma, 5550 nM; in the experiment on CAKI-1 renal it was 6820 nM. Further, the TGI was 3900 nM with UO-31 renal and 5590 nM with NCI-H226 lung.

`C=C1CC[C@@H]2[C@](C)(COC(C)=O)[C@H](OC(C)=O)CC[C@@]2(C)[C@@H]1CC(Nc1ccc(S(=O)(=O)NC(C)=O)cc1)C1=CCOC1=O` (some centres undefined): the GI50 with NCI-H522 lung was 1440 nM; with UACC-257 melanoma, 6820 nM; in the experiment on SK-MEL-5 melanoma, 3220 nM; in the experiment with SK-OV-3 ovarian, 9310 nM; in the experiment with LOX IMVI melanoma it was 1250 nM; with CAKI-1 renal, 3310 nM. In addition, the GI50 is 3710 nM with UO-31 renal and 1920 nM in the experiment on NCI-H226 lung. Also, the TGI came out at 4420 nM in the experiment on NCI-H522 lung; 16000 nM in the experiment with UACC-257 melanoma; 11500 nM in the experiment with SK-MEL-5 melanoma; 18700 nM in the experiment with SK-OV-3 ovarian; 2420 nM in the experiment on LOX IMVI melanoma; 11200 nM in the experiment with CAKI-1 renal. For the same compound, the TGI came out at 13200 nM with UO-31 renal and 4620 nM in the experiment with NCI-H226 lung.

Take `CCOC(=O)c1cc(C(=O)c2cc(OC)c(OC)c(OC)c2)n2ncccc12`: the GI50 in the experiment with NCI-H522 lung was 290 nM; in the experiment on UACC-257 melanoma it was 65700 nM; in the experiment on SK-MEL-5 melanoma it was 247 nM; with SK-OV-3 ovarian, 472 nM; in the experiment with LOX IMVI melanoma, 2460 nM; with CAKI-1 renal, 374 nM. Also, the GI50 was 782 nM with UO-31 renal and 28200 nM in the experiment on NCI-H226 lung. Besides, the TGI is > 21700 nM in the experiment with NCI-H522 lung; > 100000 nM in the experiment with UACC-257 melanoma; > 100000 nM in the experiment on SK-MEL-5 melanoma; > 95100 nM in the experiment with SK-OV-3 ovarian; > 100000 nM with LOX IMVI melanoma; > 100000 nM in the experiment with CAKI-1 renal. Moreover, the TGI in the experiment with UO-31 renal and in the experiment on NCI-H226 lung was > 100000 nM each time.

As for `O=c1c2c(=NCCN3CCCC3)cc3c(=O)n(CCCN4CCOCC4)c(=O)c4c(-c5ccc(CN6CCCC6)cc5)cc(c(O)n1CCCN1CCOCC1)c2c4-3`, the GI50 in the experiment with NCI-H522 lung was 26.5 nM; in the experiment with UACC-257 melanoma, 194 nM; with SK-MEL-5 melanoma, 133 nM; in the experiment on SK-OV-3 ovarian it was 86 nM; with LOX IMVI melanoma, 36.9 nM; with CAKI-1 renal, 34.6 nM. Further, the GI50 is 38 nM in the experiment with UO-31 renal and 52.3 nM in the experiment with NCI-H226 lung. For the same compound, the TGI in the experiment on NCI-H522 lung came out at 135 nM; in the experiment with UACC-257 melanoma, 1330 nM; in the experiment on SK-MEL-5 melanoma it was 300 nM; with SK-OV-3 ovarian, 1430 nM; in the experiment with LOX IMVI melanoma, 234 nM; in the experiment with CAKI-1 renal, 651 nM. The TGI was found to be 231 nM in the experiment on UO-31 renal and 490 nM with NCI-H226 lung.

Turning to `CCOC(=O)c1ccc(NC(=O)Nc2nncs2)cc1`, the GI50 in the experiment with NCI-H522 lung is 74.6 nM; in the experiment on UACC-257 melanoma, 1430 nM; in the experiment with SK-MEL-5 melanoma it was 67.2 nM; with SK-OV-3 ovarian it was 178 nM; in the experiment with LOX IMVI melanoma, 485 nM; in the experiment with CAKI-1 renal, 427 nM. In addition, the GI50 in the experiment on UO-31 renal is 1480 nM; in the experiment with NCI-H226 lung, 1090 nM. Besides, the TGI in the experiment on NCI-H522 lung was 1870 nM; in the experiment with UACC-257 melanoma it was > 85100 nM; in the experiment with SK-MEL-5 melanoma, 5160 nM; in the experiment with SK-OV-3 ovarian, 3110 nM; with LOX IMVI melanoma, 7670 nM; in the experiment on CAKI-1 renal, > 47000 nM. Also, the TGI was determined as 28700 nM in the experiment with UO-31 renal and 19500 nM with NCI-H226 lung.

As to `CCOC(=O)C1Cc2c(cc3c4c(cccc24)N(C(C)=O)C3)N(C)C1` (centres undefined), the TGI was 1300 nM in the experiment on NCI-H522 lung; > 100000 nM in the experiment on UACC-257 melanoma; > 100000 nM with SK-MEL-5 melanoma; > 100000 nM in the experiment with SK-OV-3 ovarian; > 100000 nM with LOX IMVI melanoma; > 100000 nM in the experiment on CAKI-1 renal. In addition, the values for the TGI in the experiment with UO-31 renal and with NCI-H226 lung were > 100000 nM and 9370 nM, respectively.

On to `CCN1C(=S)N(c2ccccc2)C2NC(=S)N(/N=C/C=C/c3ccccc3OC)C21` (centres undefined), for which the GI50 was 224 nM with NCI-H522 lung; > 100000 nM in the experiment with UACC-257 melanoma; 322 nM in the experiment with SK-MEL-5 melanoma; 647 nM in the experiment on SK-OV-3 ovarian; 482 nM in the experiment with LOX IMVI melanoma; 298 nM with CAKI-1 renal. Besides, the GI50 in the experiment with UO-31 renal was 675 nM; in the experiment with NCI-H226 lung, 962 nM. The TGI in the experiment with NCI-H522 lung was 1260 nM; in the experiment with UACC-257 melanoma, > 100000 nM; in the experiment on SK-MEL-5 melanoma, 3140 nM; in the experiment on SK-OV-3 ovarian, > 100000 nM; in the experiment on LOX IMVI melanoma, > 100000 nM; in the experiment on CAKI-1 renal it was > 100000 nM. Also, the results for the TGI with UO-31 renal and in the experiment on NCI-H226 lung were > 100000 nM and > 23100 nM, respectively.

For `c1cc(NNc2cccc(-c3nn[nH]n3)c2)cc(-c2nn[nH]n2)c1`, the TGI with NCI-H522 lung, in the experiment on UACC-257 melanoma, in the experiment on SK-MEL-5 melanoma, with SK-OV-3 ovarian, with LOX IMVI melanoma and in the experiment on CAKI-1 renal was > 100000 nM in each case. For the same compound, the TGI in the experiment on UO-31 renal and in the experiment with NCI-H226 lung was > 100000 nM throughout.

Take `COc1cc(C2Cc3ncccc3-c3[nH]c(=O)c4cccnc4c32)cc(OC)c1OC` (centres undefined): the GI50 was 204 nM in the experiment on NCI-H522 lung; > 100000 nM in the experiment with UACC-257 melanoma; 339 nM in the experiment with SK-MEL-5 melanoma; 376 nM with SK-OV-3 ovarian; 452 nM with LOX IMVI melanoma; 1580 nM in the experiment with CAKI-1 renal. Further, the GI50 was 819 nM in the experiment with UO-31 renal and > 74700 nM in the experiment with NCI-H226 lung. Also, the TGI with NCI-H522 lung is 635 nM; in the experiment with UACC-257 melanoma, > 100000 nM; in the experiment with SK-MEL-5 melanoma, 20200 nM; with SK-OV-3 ovarian it was > 100000 nM; with LOX IMVI melanoma, > 100000 nM; in the experiment on CAKI-1 renal, > 100000 nM. Besides, the TGI in the experiment on UO-31 renal and in the experiment with NCI-H226 lung was > 100000 nM each time.

For the origin of these results see PubChem BioAssay (NCI).
